Experimental data reported in patent publication US20130004580A1, “DIVALENT CATION/TALC CONTAINING COMPOSITIONS AND METHODS FOR TREATING AND/OR PREVENTING ENZYMATIC IRRITATION” (priority 2011, published 2013).

Columns and labels:
Assay type in all cases: biochemical
trypsin [1] = assay: Trypsin inhibition, EnzChek protease assay, mixtures of talc with divalent cation salts
Description: The objective of the following experiment was to determine whether and to what extent adding a divalent cation to talc inhibited trypsin activity in an in vitro assay. The inhibition of trypsin-induced cleavage of a fluorescent casein peptide was measured using the EnzChek™ protease assay kit, following manufacturer's instructions (EnzChek™ Protease Assay Kits Product Information, Revised; Molecular Probes, Eugene Oreg.). […] Trypsin working solution (Sigma, St. Louis, Mo., unit/mL) was prepared in digestion buffer provided in the assay kit. Stock solution of BODIPY FL casein (trypsin substrate, mg/mL) was prepared by adding 0.2 mL to the substrate vials (provided in kit), and the final substrate working solution (10 microgram/mL) was prepared by dilution in digestion buffer (pH 7.8). Following incubation of the trypsin, with or without the test materials, with the BODIPY fluorescent casein substrate, at room temperature for one hour, fluorescence was measured (excitation 485 nm/emission 530 nm) using a SpectraMax microtiter plate reader (Molecular Devices Corporation, Sunnyvale, Calif.) and Softmax Pro software (Molecular Devices Corporation). Each experiment was performed in three replicates.

trypsin [2] = assay: Trypsin inhibition, EnzChek protease assay, zinc oxide/acid mixtures and formulations; conditions: text b134 on Table 5
Description: The objective of the following experiment was to determine whether and to what extent adding an acid to a formulation containing zinc oxide had on inhibition of trypsin activity in an in vitro assay. The inhibition of trypsin-induced cleavage of a fluorescent casein peptide was measured using the EnzChek™ protease assay kit, following manufacturer's instructions (EnzChek™ Protease Assay Kits Product Information, Revised; Molecular Probes, Eugene Oreg.). Briefly, mixtures of zinc oxide and acid at different concentrations were prepared in 1×PBS (pH 7.4) and their pH was recorded as listed in the Tables 5-8. Trypsin working solution (Sigma, St. Louis, Mo., unit/mL) was prepared in digestion buffer provided in the assay kit. Stock solution of BODIPY FL casein (trypsin substrate, mg/mL) was prepared by adding 0.2 mL to the substrate vials (provided in kit), and the final substrate working solution (10 microgram/mL) was prepared by dilution in digestion buffer (pH 7.8). Following incubation of the trypsin, with or without the test materials (50 μl), with the BODIPY fluorescent casein substrate, at room temperature for one hour, fluorescence was measured (excitation 485 nm/emission 530 nm) using a SpectraMax microtiter plate reader (Molecular Devices Corporation, Sunnyvale, Calif.) and Softmax Pro software (Molecular Devices Corporation). Each experiment was performed in three replicates. […]

trypsin [3] = assay: Trypsin inhibition, EnzChek protease assay (BODIPY FL casein cleavage), cation salts; conditions: Table 1
Description: The inhibition of trypsin-induced cleavage of a fluorescent casein peptide was measured using the EnzChek™ protease assay kit, following manufacturer's instructions (EnzChek™ Protease Assay Kits Product Information, Revised; Molecular Probes, Eugene Oreg.). Briefly, test materials at different concentrations were prepared in 1× phosphate buffered saline (PBS, pH 7.4). Trypsin working solution (Sigma, St. Louis, Mo., unit/mL) was prepared in digestion buffer provided in the assay kit. Stock solution of BODIPY FL casein (trypsin substrate, mg/mL) was prepared by adding 0.2 mL to the substrate vials (provided in kit), and the final substrate working solution (10 microgram/mL) was prepared by dilution in digestion buffer (pH 7.8). […] Each experiment was performed in three replicates.

**Q.** With `CC(=O)[O-].CC(=O)[O-].O.[Ca+2]` [Calcium acetate monohydrate] as the molecule, how does the “Salt alone, trypsin inhibition activities (%)” value (trypsin [1]; Table 3, 0.1% (g/mL)) read?
**A.** 15.31%

**Q.** How did the “Salt alone, trypsin inhibition activities (%)” value (trypsin [1]; Table 3, 0.1% (g/mL)) turn out when `[Ca+2].[Cl-].[Cl-]` [Calcium chloride] was run?
**A.** 17.95%

**Q.** How did the “Salt alone, trypsin inhibition activities (%)” value (trypsin [1]; Table 3, 0.1% (g/mL)) turn out when `O.O.O.O.[Cl][Fe][Cl]` [Iron (II) chloride tetrahydrate] was run?
**A.** 65.07%

**Q.** `CC(=O)[O-].CC(=O)[O-].O.O.O.O.[Mg+2]` [Magnesium acetate tetrahydrate] was tested. Which “Salt alone, trypsin inhibition activities (%)” value (trypsin [1]; Table 3, 0.1% (g/mL)) did it give?
**A.** 0.83%

**Q.** What does the source list for `[Cl-].[Cl-].[Mg+2]` [Magnesium chloride]?
**A.** Salt alone, trypsin inhibition activities (%) (trypsin [1]; Table 3, 0.1% (g/mL)): 4.75%; Salt alone, trypsin inhibition activities (%) (trypsin [1]; Table 4, 0.1% MgCl2 (g/mL)): 9.02%; With 1% Talc, trypsin inhibition activities (%) (trypsin [1]; Table 4, 0.1% MgCl2 with 1% talc (g/mL)): 25.43%; Salt alone, trypsin inhibition activities (%) (trypsin [1]; Table 4, 0.5% MgCl2 (g/mL)): 19.51%; With 1% Talc, trypsin inhibition activities (%) (trypsin [1]; Table 4, 0.5% MgCl2 with 1% talc (g/mL)): 32.84%; Salt alone, trypsin inhibition activities (%) (trypsin [1]; Table 4, 1% MgCl2 (g/mL)): 22.13%; With 1% Talc, trypsin inhibition activities (%) (trypsin [1]; Table 4, 1% MgCl2 with 1% talc (g/mL)): 40.42%; trypsin inhibitory activity, in words (trypsin [1]; text b102 on Table 4): moderate to low levels of trypsin inhibitory activity

**Q.** `CC(=O)[O-].CC(=O)[O-].[Zn+2]` [Zinc acetate dihydrate] was tested. Which “Salt alone, trypsin inhibition activities (%)” value (trypsin [1]; Table 3, 0.1% (g/mL)) did it give?
**A.** 62.84%

**Q.** Which “Salt alone, trypsin inhibition activities (%)” value (trypsin [1]; Table 3, 0.1% (g/mL)) does the source give for `[Cl-].[Cl-].[Zn+2]` [Zinc chloride] here?
**A.** 81.07%

**Q.** How did the “trypsin inhibitory activity, in words” value (trypsin [2]) turn out when `[O]=[Zn]` [ZnO, zinc oxide] was run?
**A.** minimal protease activity

**Q.** With “copper (II) chloride [(II) chloride dihydrate]” as the molecule, how does the “% trypsin inhibitory activity” value (trypsin [3]; concentration 0.01% (g/mL)) read?
**A.** 64.98%

**Q.** And the “% trypsin inhibitory activity” value (trypsin [3]; concentration 0.10% (g/mL))?
**A.** 99.34%

**Q.** What about the “% trypsin inhibitory activity” value (trypsin [3]; concentration 1% (g/mL)) of the same molecule?
**A.** 108.34%
